In publication PMC11674141, “Antimicrobial activity and synergistic effect of phage-encoded antimicrobial peptides with colistin and outer membrane permeabilizing agents against Acinetobacter baumannii” (PeerJ, 2024):
In brackets after ≈: the same amount, converted by molar mass. Where two headings read alike, the source gives them in different places. Where no end group is shown, it is not given here.

Key:
A. baumannii ATCC19606 [1] = details: for MIC values of outer membrane permeabilizers and colistin: A. baumannii 19606
A. baumannii ATCC19606 [2] = test: microbe, parasite or virus in culture; details: Acinetobacter baumannii, ATCC19606, read-out: MIC alone
[3] = microdilution, triplicate samples
[4] = A. baumannii 19,606, microdilution, MHB, 37 °C overnight, triplicate samples

MIC values of outer membrane permeabilizers and colistin (A. baumannii ATCC19606 [1]; [3]) [µg/mL]	MIC (ATCC19606) (A. baumannii ATCC19606 [1]; ATCC19606) [µg/mL]	MIC values (A. baumannii ATCC19606 [1]; ATCC19606)	Molecule	MIC values (A. baumannii ATCC19606 [1]; [4])	MIC (ATCC19606) (A. baumannii ATCC19606 [1]; A. baumannii ATCC19606) [µg/mL]	further results
5000	–	–	O=C(O)CC(O)(CC(=O)O)C(=O)O [Citric acid, reference compound]	–	–	MIC (A. baumannii ATCC19606 [2]): 5000 µg/mL (≈ 26 mM)
–	–	–	CC[C@H](C)[C@H](NC(=O)[C@H](CCCNC(=N)N)NC(=O)[C@H](CC(N)=O)NC(=O)[C@@H](N)CCCCN)C(=O)N[C@H](C(=O)NCC(=O)N1CCC[C@H]1C(=O)N[C@H](C(=O)N[C@@H](Cc1ccc(O)cc1)C(=O)N[C@@H](C)C(=O)N[C@@H](CCCCN)C(=O)N[C@@H](CS)C(=O)N[C@@H](CC(N)=O)C(=O)N[C@@H](CCCNC(=N)N)C(=O)N[C@@H](CO)C(=O)N[C@@H](CCCNC(=N)N)C(=O)N[C@@H](CCC(N)=O)C(=O)N[C@@H](CCSC)C(=O)N[C@@H](C)C(=O)N[C@@H](CC(C)C)C(=O)N[C@@H](CCC(=O)O)C(=O)N[C@@H](CC(N)=O)C(=O)N[C@@H](CCSC)C(=O)N[C@@H](C)C(=O)N[C@@H](Cc1ccccc1)C(=O)O)C(C)C)[C@@H](C)CC [PTL02]	5,000 ug/ml	5000 (≈ 1.72 mM)	–
–	> 5000	>5,000 ug/ml	EYRSSWTGAYGASVLNKYIGMGRNS [PSTF02]	–	–	–
–	> 2500	>2,500 ug/ml	LNSKDYAGAAAQFLVWNKGRVKGKL [PE02-1]	–	–	–
–	–	–	ENMRNRKWNSTDTVMRRSRFQRYLR [PTTPAT04]	2,500 ug/ml	2500	–
2500	–	–	O=C(O)CC(O)C(=O)O (racemic) [DL-Malic acid, reference compound]	–	–	–
